Laboratory results reported in PubChem BioAssay AID330 (DTP/NCI, 2004).
Where “and” joins values, the source holds several entries; their conditions need not be identical. Equal values may be shown once. Toxic doses and inconclusive results are not listed. How the source made its calls: active means survival T/C of 150% or more; inactive means T/C below 125% in these data. Square brackets hold non-standard residues; d marks the D form. Peptide text beside a SMILES is read from it. Abu = CC[CH](N)C(=O)O

Tested on: P388 leukemia ip, CD2F1 mice, survival T/C
Assay: NCI In Vivo Anticancer Drug Screen. Data for tumor model P388 Leukemia (intraperitoneal) in CD2F1 (CDF1) mice
Settings: endpoint: median survival time, higher = longer survival
Method in brief: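 Mice carrying the transplanted tumor received test compound or vehicle. Survival was recorded in each group, and the value is the treated-group measurement divided by that of the vehicle-treated control group.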

[1] = dose: 25.0 mg/kg/injection, schedule: Q01DX009 (ip), vehicle: saline with Tween-80
[2] = dose: 50.0 mg/kg/injection, schedule: Q01DX009 (ip), vehicle: saline with Tween-80
[3] = dose: 50.0 mg/kg/injection, schedule: Q01DX005 (ip), vehicle: Klucel (hydroxypropylcellulose) (HPC)
[4] = dose: 100.0 mg/kg/injection, schedule: Q01DX005 (ip), vehicle: Klucel (hydroxypropylcellulose) (HPC)
[5] = dose: 200.0 mg/kg/injection, schedule: Q01DX005 (ip), vehicle: Klucel (hydroxypropylcellulose) (HPC)
[6] = dose: 50.0 mg/kg/injection, schedule: Q01DX005 (ip), vehicle: saline
[7] = dose: 100.0 mg/kg/injection, schedule: Q01DX005 (ip), vehicle: saline
[8] = dose: 60.0 mg/kg/injection, schedule: Q01DX005 (ip), vehicle: saline
[9] = dose: 120.0 mg/kg/injection, schedule: Q01DX005 (ip), vehicle: saline
[10] = dose: 240.0 mg/kg/injection, schedule: Q01DX005 (ip), vehicle: saline
[11] = dose: 50.0 mg/kg/injection, schedule: Q01DX005 (ip), vehicle: saline with Tween-80
[12] = dose: 100.0 mg/kg/injection, schedule: Q01DX005 (ip), vehicle: saline with Tween-80
[13] = dose: 200.0 mg/kg/injection, schedule: Q01DX005 (ip), vehicle: saline with Tween-80
[14] = dose: 100.0 mg/kg/injection, schedule: Q01DX009 (ip), vehicle: saline with Tween-80
[15] = dose: 200.0 mg/kg/injection, schedule: Q01DX009 (ip), vehicle: saline with Tween-80

Measured: T/C

O=C1C=C(N2CC2)c2ccccc2C1=O
inactive: dose: 6.25 mg/kg/injection, schedule: Q01DX009 (ip), vehicle: saline with Tween-80 118 % of control | dose: 6.25 mg/kg/injection, schedule: Q04DX003 (ip), vehicle: saline with Tween-80 110 % of control | dose: 8.33 mg/kg/injection, schedule: Q01DX009 (ip), vehicle: saline with Tween-80 118 % of control | dose: 12.5 mg/kg/injection, schedule: Q04DX003 (ip), vehicle: saline with Tween-80 120 % of control

NCCCN1c2ccccc2Sc2ccc(Cl)cc21
inactive: [1] 99 % of control and 90 % of control | [2] 113 % of control and 120 % of control

OC1CC2c3ccccc3C1c1ccccc12 (stereo not drawn)
inactive: [3] 95 % of control | [4] 99 % of control | [5] 100 % of control

CCC(N)C(=O)NC(CO)C(=O)O (stereo not drawn) (H-[Abu]-Ser-OH; configuration not given here)
inactive: [6] 106 % of control | [7] 109 % of control | dose: 200.0 mg/kg/injection, schedule: Q01DX005 (ip), vehicle: saline 106 % of control

CSC(=NCCCCCCCCN=C(NC#N)SC)NC#N
inactive: dose: 50.0 mg/kg/injection, schedule: Q01DX009 (ip), vehicle: Klucel (hydroxypropylcellulose) (HPC) 94 % of control | dose: 100.0 mg/kg/injection, schedule: Q01DX009 (ip), vehicle: Klucel (hydroxypropylcellulose) (HPC) 102 % of control | dose: 200.0 mg/kg/injection, schedule: Q01DX009 (ip), vehicle: Klucel (hydroxypropylcellulose) (HPC) 95 % of control

CCN(CC)Cc1ccccc1CO
inactive: [6] 110 % of control | [7] 106 % of control

O=c1[nH]c(=O)n(C2OC(CO)C(O)C2O)cc1O (stereo not drawn)
inactive: [8] 102 % of control | [9] 101 % of control | [10] 103 % of control

CSc1nc(NC2OC(CO)C(O)C(O)C2O)c(C(=O)CCl)c(=O)n1C (stereo not drawn)
inactive: [11] 93 % of control | [12] 91 % of control | [13] 90 % of control

S=c1nc[nH]c2nc(-c3ccccc3)[nH]c12
inactive: dose: 12.5 mg/kg/injection, schedule: Q01DX005 (ip), vehicle: other 101 % of control | dose: 25.0 mg/kg/injection, schedule: Q01DX005 (ip), vehicle: other 100 % of control | dose: 50.0 mg/kg/injection, schedule: Q01DX005 (ip), vehicle: other 101 % of control | dose: 100.0 mg/kg/injection, schedule: Q01DX005 (ip), vehicle: other 92 % of control | dose: 200.0 mg/kg/injection, schedule: Q01DX005 (ip), vehicle: other 92 % of control

Cc1ccc2nc3c(nc2c1)n(-c1ccccc1)c(=O)n3-c1cccc(Br)c1
inactive: [11] 88 % of control | [12] 91 % of control | [13] 100 % of control

O=S(=O)(CCS(=O)(=O)c1ccccc1)c1ccccc1
inactive: [2] 92 % of control | [14] 92 % of control | [15] 89 % of control

O=C1CSC(c2cc(Cl)ccc2[N+](=O)[O-])N1c1nncs1 (stereo not drawn)
inactive: dose: 100.0 mg/kg/injection, schedule: Q04DX002 (ip), vehicle: saline with Tween-80 87 % of control | dose: 200.0 mg/kg/injection, schedule: Q04DX002 (ip), vehicle: saline with Tween-80 87 % of control | dose: 400.0 mg/kg/injection, schedule: Q04DX002 (ip), vehicle: saline with Tween-80 88 % of control

N#CC(C#N)=C(O)/C(=C/c1ccc([N+](=O)[O-])cc1)NC(=O)c1ccccc1
inactive: [8] 95 % of control | [9] 100 % of control | [10] 95 % of control

CCCCCn1cnc2cc(N3CCOCC3)c([N+](=O)[O-])cc2c1=O
inactive: dose: 100.0 mg/kg/injection, schedule: Q04DX003 (ip), vehicle: Klucel (hydroxypropylcellulose) (HPC) 103 % of control | dose: 200.0 mg/kg/injection, schedule: Q04DX003 (ip), vehicle: Klucel (hydroxypropylcellulose) (HPC) 96 % of control | dose: 400.0 mg/kg/injection, schedule: Q04DX003 (ip), vehicle: Klucel (hydroxypropylcellulose) (HPC) 96 % of control

CC1(OC(=O)Nc2ccccc2)CCCCC1
inactive: dose: 100.0 mg/kg/injection, schedule: Q04DX003 (ip), vehicle: saline with Tween-80 96 % of control | dose: 200.0 mg/kg/injection, schedule: Q04DX003 (ip), vehicle: saline with Tween-80 100 % of control | dose: 400.0 mg/kg/injection, schedule: Q04DX003 (ip), vehicle: saline with Tween-80 97 % of control

COc1ccc2c3c1OC1C(O)C=CC4C(C2O)N(C)CCC341 (stereo not drawn)
inactive: dose: 50.0 mg/kg/injection, schedule: Q01DX005 (ip), vehicle: saline + Tween-80 + alcohol 100 % of control | dose: 100.0 mg/kg/injection, schedule: Q01DX005 (ip), vehicle: saline + Tween-80 + alcohol 100 % of control | dose: 200.0 mg/kg/injection, schedule: Q01DX005 (ip), vehicle: saline + Tween-80 + alcohol 100 % of control

C=C(C)C1CCC2(C)CC3C(=C)CC(O)C(O)C3(C)CCC12 (stereo not drawn)
inactive: dose: 4.0 mg/kg/injection, schedule: Q01DX009 (ip), vehicle: Klucel (hydroxypropylcellulose) (HPC) 104 % of control | dose: 8.0 mg/kg/injection, schedule: Q01DX009 (ip), vehicle: Klucel (hydroxypropylcellulose) (HPC) 101 % of control | dose: 16.0 mg/kg/injection, schedule: Q01DX009 (ip), vehicle: Klucel (hydroxypropylcellulose) (HPC) 101 % of control | dose: 32.0 mg/kg/injection, schedule: Q01DX009 (ip), vehicle: Klucel (hydroxypropylcellulose) (HPC) 104 % of control

OCCCOCCCOCCCOCCCO
inactive: dose: 100.0 mg/kg/injection, schedule: Q01DX001 (ip), vehicle: saline 101 % of control | dose: 200.0 mg/kg/injection, schedule: Q01DX001 (ip), vehicle: saline 108 % of control | dose: 400.0 mg/kg/injection, schedule: Q01DX001 (ip), vehicle: saline 101 % of control

O=C(CN1CCC(O)(c2ccccc2)CC1)N1CCN(/C=C/c2ccccc2)CC1
inactive: dose: 60.0 mg/kg/injection, schedule: Q01DX005 (ip), vehicle: saline with Tween-80 100 % of control | dose: 120.0 mg/kg/injection, schedule: Q01DX005 (ip), vehicle: saline with Tween-80 104 % of control | dose: 240.0 mg/kg/injection, schedule: Q01DX005 (ip), vehicle: saline with Tween-80 91 % of control

[Cl][Cu][Cl].c1ccc2c(c1)Sc1ccccc1[N+]2=c1ccc2nc3ccccc3sc-2c1
inactive: dose: 60.0 mg/kg/injection, schedule: Q01DX005 (ip), vehicle: Klucel (hydroxypropylcellulose) (HPC) 87 % of control | dose: 120.0 mg/kg/injection, schedule: Q01DX005 (ip), vehicle: Klucel (hydroxypropylcellulose) (HPC) 95 % of control

CCOC1NC(=S)N(C2CCCCC2)C1(C)C (stereo not drawn)
inactive: dose: 50.0 mg/kg/injection, schedule: Q01DX009 (ip), vehicle: suspension in saline 93 % of control | dose: 100.0 mg/kg/injection, schedule: Q01DX009 (ip), vehicle: suspension in saline 92 % of control | dose: 200.0 mg/kg/injection, schedule: Q01DX009 (ip), vehicle: suspension in saline 97 % of control

N#CC(Cc1ccccc1)c1ccccc1 (stereo not drawn)
inactive: dose: 25.0 mg/kg/injection, schedule: Q01DX009 (ip), vehicle: distilled water + Tween-80 95 % of control | dose: 50.0 mg/kg/injection, schedule: Q01DX009 (ip), vehicle: distilled water + Tween-80 110 % of control | dose: 100.0 mg/kg/injection, schedule: Q01DX009 (ip), vehicle: distilled water + Tween-80 93 % of control

O=C1Cc2cccc3cccc1c23
inactive: [1] 90 % of control | [2] 104 % of control | [14] 96 % of control | [15] 111 % of control

N=C(N)c1ccc(N=Nc2cc(N=Nc3ccc(C(=N)N)cc3)c(O)cc2O)cc1
inactive: [3] 92 % of control | [4] 92 % of control | [5] 100 % of control

CC1OC(OCC2OC(OCCc3ccc(O)c(O)c3)C(O)C(OC3OC(C)C(O)C(O)C3O)C2O)C(O)C(O)C1O (stereo not drawn) (tested in a mixture with another compound)
inactive: dose: 9.5 mg/kg/injection, schedule: Q01DX009 (ip), vehicle: saline 105 % of control | dose: 19.0 mg/kg/injection, schedule: Q01DX009 (ip), vehicle: saline 103 % of control | dose: 38.0 mg/kg/injection, schedule: Q01DX009 (ip), vehicle: saline 112 % of control | dose: 76.0 mg/kg/injection, schedule: Q01DX009 (ip), vehicle: saline 103 % of control
